Data reported in patent US7655677B2, “Composition and method for controlling house insect pest” (priority 2002, dated 2010).

Tests used:
Assay type in all cases: in vivo
Reticulitermes speratus [1] = assay: Test Example 3: treated filter paper in Petri dish, termite mortality after 37 days; conditions: Reticulitermes speratus, 888 h
Method: (§1) Mortality (%)=(Number of dead termite workers/15 termite workers)×100
(§2) Further, by the Colby's formula, the theoretical value (%) of mortality can be calculated. In a case where the actual mortality (%) is higher than the theoretical value (%), it can be said that the composition of the present invention has a synergistic effect for controlling the house insect pest.
(§3) A filter paper having a diameter of 80 mm was placed in a plastic Petri dish, and 1 ml of a pesticide solution having a predetermined concentration, was dropped thereon. After the treatment, the solvent was sufficiently evaporated, and then, 1 ml of distilled water was impregnated to the treated filter paper, whereupon 10 termite workers (Reticulitermes speratus) were released. The plastic Petri dish was placed in a container having wet cotton laid over the bottom, and the container was maintained at 25° C. for 37 days, whereupon the number of dead termites in the Petri dish was examined, and the mortality was calculated in the same manner as in Test Example 1.

Reticulitermes speratus [2] = assay: Test Example 1: treated filter paper in Petri dish, termite mortality after 13 days; conditions: 312 h
Method: as §3, with “predetermined concentration” for “predetermined concentration,”, “whereupon 15” for “whereupon 10”, “workers and one termite soldier” for “workers”, “for 13” for “for 37”, “calculated by” for “calculated in”, “the following formula.” for “the same manner as in Test Example 1.”
as §1, §2

Coptotermes formosanus [3] = assay: Test Example 24: treated filter paper in Petri dish, termite mortality on 21st or 28th day
Method: as §1, §2
A filter paper having a diameter of 80 mm was placed in a plastic Petri dish, and 1 ml of a pesticide solution having a predetermined concentration was dropped thereon, whereupon 10 termite workers (Coptotermes formosanus) were released, and a cover was put on the Petri dish. This plastic Petri dish was put in a container having wet cotton laid over the bottom and maintained at room temperature of 25° C. On 21 or 28th day after the treatment, the number of dead termites in the Petri dish was examined, and the mortality was calculated in the same manner as Test Example 1.

Coptotermes formosanus [4] = assay: Test Example 5: treated filter paper in acrylic cup, termite mortality after 7 days; conditions: 168 h
Method: (§4) A filter paper having a diameter of 80 mm was placed in a cylindrical cup made of acrylic resin having a diameter of 80 mm and a height of 60 mm (i.e. a cup having a hole with a diameter of 10 mm formed in the bottom and having hard plaster (Dental Stone) set at the bottom in a thickness of 10 mm), and 1 ml of a solution containing a sample compound in a predetermined concentration, was dropped thereon. Then, nine termite workers and one termite soldier (Coptotermes formosanus) were released thereon. The cup was placed in a container having wet cotton laid over the bottom, and the container was maintained at room temperature of 25° C. for 7 days, whereupon the mortality of termites in the cup was examined.

Priplaneta americana = assay: Test Example 12: mouse feed poison bait, mortality with time; conditions: bait 1%
Method: 1 g of feeding stuff for mice was treated with 0.5 ml of an acetone solution containing 10 mg of a sample compound and put in a constant temperature chamber at 40° C. for 20 hours to sufficiently evaporate acetone, whereby a poison bait chemical containing 1% of the sample compound was prepared. Then, this poison bait chemical was put into a cup together with a wet cotton, and 10 […] (Priplaneta americana) were released and kept at 25° C. in a breeding room, whereby the mortality was examined as the time passed.

Reticulitermes speratus [5] = assay: Test Example 6: treated filter paper in acrylic cup, termite mortality after 7 days; conditions: 168 h
Method: as §4, with “ten” for “nine”, “(Reticulitermes speratus)” for “(Coptotermes formosanus)”

Lasius japonicus = assay: Test Example 11: powdered skim milk poison bait, controlling effect on ants 4 days later; conditions: bait concentration 1%
Method: 1 g of powdered skim milk was treated with 1 ml of an acetone solution containing 10 mg of a sample compound and put in a constant temperature chamber at 40° C. for 20 hours to sufficiently evaporate acetone. In this manner, a poison bait chemical containing 1% of an active ingredient compound, was prepared. Then, this poison bait chemical was put into a cup together with a wet cotton, and 15 ants (Lasius japonicus) were released. 4 Days later, the mortality was examined. Here, when the mortality 4 days later was at least 40%, the controlling effect was rated to be positive.

Reticulitermes speratus [6] = assay: Test Example 9: treated filter paper in acrylic cup, termite mortality 5 and 20 days later; conditions: 1000 ppm
Method: as §4, with “ten” for “nine”, “(Reticulitermes speratus)” for “(Coptotermes formosanus)”, “C., and 5 days later and 20 days later,” for “C. for 7 days, whereupon”

Reticulitermes speratus [7] = assay: Test Example 2: treated filter paper in Petri dish, termite mortality after 17 days; conditions: 408 h
Method: as §1, §2
as §3, with “evaporated” for “evaporated,”, “15” for “10”, “workers and one termite soldier” for “workers”, “17 days. Then,” for “37 days, whereupon”

O=C(NC(=O)c1c(F)cccc1F)Nc1cc(Cl)c(Oc2ncc(C(F)(F)F)cc2Cl)c(Cl)c1 [Chlorfluazuron] showed a mortality at 500 ppm (Reticulitermes speratus [1]; Chlorfluazuron 500 ppm alone) of 30%, a mortality at 1000 ppm (Reticulitermes speratus [1]; Chlorfluazuron 1000 ppm alone) of 50% and a mortality at 2000 ppm (Reticulitermes speratus [1]; Chlorfluazuron 2000 ppm alone) of 50%. It also gave a mortality at 4000 ppm (Reticulitermes speratus [1]; Chlorfluazuron 4000 ppm alone) of 50%, a mortality at 1000 ppm (Reticulitermes speratus [2]) of 0% and a mortality at 2000 ppm (Reticulitermes speratus [2]) of 33%. For the same molecule, the mortality at 4000 ppm (Reticulitermes speratus [2]) was 53%, the mortality at 8000 ppm (Reticulitermes speratus [2]) was 60% and the mortality at 500 ppm (Coptotermes formosanus [3]; Coptotermes formosanus) was 20%. It also gave a mortality at 1000 ppm (Coptotermes formosanus [3]; Coptotermes formosanus) of 30% and a mortality at 2000 ppm (Coptotermes formosanus [3]; Coptotermes formosanus) of 30%.
For CCOP(=S)(OCC)Oc1nc(Cl)c(Cl)cc1Cl [Chlorpyrifos, reference compound], the mortality at 500 ppm (Coptotermes formosanus [4]) was 100%, the mortality at 1000 ppm (Coptotermes formosanus [4]) was 100% and the Mortality (Priplaneta americana; 1 Day later) was 100%. The Mortality (Priplaneta americana; 8 Days later) was 100%, the Mortality (Priplaneta americana; 48 Days later) was 100% and the mortality at 1000 ppm (Reticulitermes speratus [5]) was 100%.
CC(=NN=C(Cc1ccc(C(C)(C)C)cc1)c1ccc(C)cc1)N(C)C [Compound No. II-6, [4′-methyl-2-(4-tert-butylphenyl)acetophenone]N′-[1-(dimethylamino)ethylidene]hydrazone] was tested, and the Controlling effect (Lasius japonicus) was “Positive (when the mortality 4 days later was at least 40%, the controlling effect was rated to be positive)”, the Mortality (Reticulitermes speratus [6]; 5 Days later) was 70% and the Mortality (Reticulitermes speratus [6]; 20 Days later) was 100%.
O=C(NC(=O)c1c(F)cccc1F)Nc1cc(Cl)c(OC(F)(F)C(F)F)c(Cl)c1 [Hexaflumuron] gave a mortality at 1000 ppm (Reticulitermes speratus [7]) of 40%, a mortality at 2000 ppm (Reticulitermes speratus [7]) of 40% and a mortality at 4000 ppm (Reticulitermes speratus [7]) of 20%. For the same molecule, the mortality at 8000 ppm (Reticulitermes speratus [7]) was 33%.
For CC(N)=NN=C(Cc1ccc(C(F)(F)F)cc1)c1ccc(Cl)cc1 [Compound No. II-7, [4′-chloro-2-(4-trifluoromethylphenyl)acetophenone]N′-[1-aminoethylidene]hydrazone], the Mortality (Reticulitermes speratus [6]; 5 Days later) was 100% and the Mortality (Reticulitermes speratus [6]; 20 Days later) was 100%.
Work on CCOC(=O)NN=C(Cc1ccc(C(F)(F)F)cc1)c1ccc(Cl)cc1 [Compound No. II-3] yielded a Mortality (Priplaneta americana; 1 Day later) of 0%, a Mortality (Priplaneta americana; 8 Days later) of 100% and a Mortality (Priplaneta americana; 48 Days later) of 100%. For the same molecule, the Mortality (Reticulitermes speratus [6]; 5 Days later) was 0% and the Mortality (Reticulitermes speratus [6]; 20 Days later) was 100%.
Cc1c(COC(=O)[C@@H]2[C@H](/C=C(\Cl)C(F)(F)F)C2(C)C)cccc1-c1ccccc1 (racemic) [Bifenthrin] gave a Mortality (Coptotermes formosanus [3]; Bifenthrin 0.25 ppm alone, 28th day) of 0%, a mortality at 0.25 ppm (Coptotermes formosanus [3]; Coptotermes formosanus) of 0% and a mortality at 0.5 ppm (Coptotermes formosanus [3]; Coptotermes formosanus) of 10%. It also gave a mortality at 1 ppm (Coptotermes formosanus [3]; Coptotermes formosanus) of 40%.
Work on CC(=NN=C(Cc1ccc(C(F)(F)F)cc1)c1ccc(Cl)cc1)N(C)C [Compound No. II-1, [4′-chloro-2-(4-trifluoromethylphenyl)acetophenone]N′-[1-(dimethylamino)ethylidene]hydrazone] yielded a Mortality (Reticulitermes speratus [6]; 5 Days later) of 0% and a Mortality (Reticulitermes speratus [6]; 20 Days later) of 100%.
